According to ChEMBL document CHEMBL5291721, “A preclinical secondary pharmacology resource illuminates target-adverse drug reaction associations of marketed drugs” (Nat Commun, 2023):
Several values for one entry are separate records, joined by “and”; a condition that tells them apart may be missing. Identical values can stand only once.

Columns and labels:
Estrogen receptor beta = Estrogen receptor beta (Homo sapiens, UniProt Q92731)
Histamine H1 receptor = Histamine H1 receptor (Homo sapiens, UniProt P35367); format: functional, cell-based
Glucocorticoid receptor = target: T1, Glucocorticoid receptor (Homo sapiens, UniProt P04150); format: functional
T1 sequence (P04150 whole entry): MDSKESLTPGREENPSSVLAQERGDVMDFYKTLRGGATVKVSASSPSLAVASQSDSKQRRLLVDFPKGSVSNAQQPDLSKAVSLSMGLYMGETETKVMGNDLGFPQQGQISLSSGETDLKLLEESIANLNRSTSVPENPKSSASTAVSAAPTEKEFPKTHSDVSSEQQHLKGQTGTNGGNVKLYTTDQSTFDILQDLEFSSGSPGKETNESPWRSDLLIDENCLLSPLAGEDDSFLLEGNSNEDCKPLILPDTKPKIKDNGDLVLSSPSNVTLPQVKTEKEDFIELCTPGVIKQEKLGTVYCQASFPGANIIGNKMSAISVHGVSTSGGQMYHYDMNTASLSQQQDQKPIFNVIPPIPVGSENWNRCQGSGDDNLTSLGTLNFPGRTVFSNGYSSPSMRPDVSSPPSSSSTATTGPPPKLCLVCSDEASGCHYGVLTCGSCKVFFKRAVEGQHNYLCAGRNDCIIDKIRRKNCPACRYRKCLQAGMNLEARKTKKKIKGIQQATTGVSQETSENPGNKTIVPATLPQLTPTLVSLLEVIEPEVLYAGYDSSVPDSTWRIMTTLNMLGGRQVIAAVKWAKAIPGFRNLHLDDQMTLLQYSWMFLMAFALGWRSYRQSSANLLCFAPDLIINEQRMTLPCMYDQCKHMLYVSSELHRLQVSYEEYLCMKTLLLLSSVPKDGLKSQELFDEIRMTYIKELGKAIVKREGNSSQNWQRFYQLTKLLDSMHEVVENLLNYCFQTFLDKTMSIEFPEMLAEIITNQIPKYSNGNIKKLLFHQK

[1] = target: Gamma-aminobutyric acid type B receptor subunit 1 (Homo sapiens, UniProt Q9UBS5)
[2] = target: T2, Muscarinic acetylcholine receptor M1 (Homo sapiens, UniProt P11229)
T2 sequence (P11229 whole entry): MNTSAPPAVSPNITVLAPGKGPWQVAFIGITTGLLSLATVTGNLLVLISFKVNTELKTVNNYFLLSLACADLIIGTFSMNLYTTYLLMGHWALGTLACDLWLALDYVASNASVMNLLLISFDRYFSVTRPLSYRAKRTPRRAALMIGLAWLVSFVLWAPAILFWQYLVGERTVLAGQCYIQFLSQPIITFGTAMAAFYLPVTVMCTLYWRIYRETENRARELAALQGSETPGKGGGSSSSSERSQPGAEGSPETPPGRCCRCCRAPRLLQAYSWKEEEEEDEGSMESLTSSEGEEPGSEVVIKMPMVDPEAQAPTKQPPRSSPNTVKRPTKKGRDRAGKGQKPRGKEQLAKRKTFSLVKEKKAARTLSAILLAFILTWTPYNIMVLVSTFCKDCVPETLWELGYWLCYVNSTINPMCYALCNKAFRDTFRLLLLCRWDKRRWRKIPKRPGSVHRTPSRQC

[3] = target: Sodium channel protein type 5 subunit alpha (Homo sapiens, UniProt Q14524); format: functional, cell-based
[4] = target: Voltage-dependent L-type calcium channel subunit alpha-1C (Homo sapiens, UniProt Q13936); format: functional, cell-based
Estrogen receptor = target: T3, Estrogen receptor (Homo sapiens, UniProt P03372); format: functional
T3 sequence (P03372 whole entry): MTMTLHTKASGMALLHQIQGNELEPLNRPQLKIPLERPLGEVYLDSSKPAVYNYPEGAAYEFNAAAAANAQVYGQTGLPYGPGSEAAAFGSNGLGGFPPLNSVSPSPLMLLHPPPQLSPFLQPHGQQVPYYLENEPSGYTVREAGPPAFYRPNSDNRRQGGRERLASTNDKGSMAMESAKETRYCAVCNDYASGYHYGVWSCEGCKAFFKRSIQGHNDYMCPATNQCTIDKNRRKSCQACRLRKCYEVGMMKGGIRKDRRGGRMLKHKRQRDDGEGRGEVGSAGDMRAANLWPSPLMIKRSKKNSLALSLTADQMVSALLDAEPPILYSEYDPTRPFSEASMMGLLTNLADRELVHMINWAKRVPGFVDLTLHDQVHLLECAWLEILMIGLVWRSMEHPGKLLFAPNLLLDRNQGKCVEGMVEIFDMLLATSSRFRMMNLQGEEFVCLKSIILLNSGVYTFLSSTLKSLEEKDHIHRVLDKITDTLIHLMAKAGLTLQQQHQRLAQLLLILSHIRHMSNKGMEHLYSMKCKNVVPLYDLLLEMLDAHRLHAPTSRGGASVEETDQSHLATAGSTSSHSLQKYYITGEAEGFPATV

[5] = target: Epidermal growth factor receptor (Homo sapiens, UniProt P00533); format: functional
Cannabinoid receptor 1 = Cannabinoid receptor 1 (Homo sapiens, UniProt P21554); format: functional
[6] = target: 5-hydroxytryptamine receptor 5A (Homo sapiens, UniProt P47898)
[7] = target: T4, Muscarinic acetylcholine receptor M4 (Homo sapiens, UniProt P08173)
T4 sequence (P08173 whole entry): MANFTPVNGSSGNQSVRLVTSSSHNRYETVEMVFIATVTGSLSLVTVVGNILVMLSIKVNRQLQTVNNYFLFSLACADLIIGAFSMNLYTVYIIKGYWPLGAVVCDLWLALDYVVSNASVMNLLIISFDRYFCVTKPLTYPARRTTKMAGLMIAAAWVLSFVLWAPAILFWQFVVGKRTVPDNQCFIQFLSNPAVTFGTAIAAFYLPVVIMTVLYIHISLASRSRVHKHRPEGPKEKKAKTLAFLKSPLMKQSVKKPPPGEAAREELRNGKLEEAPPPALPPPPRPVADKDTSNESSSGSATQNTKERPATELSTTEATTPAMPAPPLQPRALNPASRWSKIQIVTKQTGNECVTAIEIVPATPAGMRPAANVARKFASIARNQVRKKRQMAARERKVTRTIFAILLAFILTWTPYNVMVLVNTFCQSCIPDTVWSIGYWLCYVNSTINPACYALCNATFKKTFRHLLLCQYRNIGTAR
Note: assay procedure not described here.

Sequence of Epidermal growth factor receptor (P00533 whole entry): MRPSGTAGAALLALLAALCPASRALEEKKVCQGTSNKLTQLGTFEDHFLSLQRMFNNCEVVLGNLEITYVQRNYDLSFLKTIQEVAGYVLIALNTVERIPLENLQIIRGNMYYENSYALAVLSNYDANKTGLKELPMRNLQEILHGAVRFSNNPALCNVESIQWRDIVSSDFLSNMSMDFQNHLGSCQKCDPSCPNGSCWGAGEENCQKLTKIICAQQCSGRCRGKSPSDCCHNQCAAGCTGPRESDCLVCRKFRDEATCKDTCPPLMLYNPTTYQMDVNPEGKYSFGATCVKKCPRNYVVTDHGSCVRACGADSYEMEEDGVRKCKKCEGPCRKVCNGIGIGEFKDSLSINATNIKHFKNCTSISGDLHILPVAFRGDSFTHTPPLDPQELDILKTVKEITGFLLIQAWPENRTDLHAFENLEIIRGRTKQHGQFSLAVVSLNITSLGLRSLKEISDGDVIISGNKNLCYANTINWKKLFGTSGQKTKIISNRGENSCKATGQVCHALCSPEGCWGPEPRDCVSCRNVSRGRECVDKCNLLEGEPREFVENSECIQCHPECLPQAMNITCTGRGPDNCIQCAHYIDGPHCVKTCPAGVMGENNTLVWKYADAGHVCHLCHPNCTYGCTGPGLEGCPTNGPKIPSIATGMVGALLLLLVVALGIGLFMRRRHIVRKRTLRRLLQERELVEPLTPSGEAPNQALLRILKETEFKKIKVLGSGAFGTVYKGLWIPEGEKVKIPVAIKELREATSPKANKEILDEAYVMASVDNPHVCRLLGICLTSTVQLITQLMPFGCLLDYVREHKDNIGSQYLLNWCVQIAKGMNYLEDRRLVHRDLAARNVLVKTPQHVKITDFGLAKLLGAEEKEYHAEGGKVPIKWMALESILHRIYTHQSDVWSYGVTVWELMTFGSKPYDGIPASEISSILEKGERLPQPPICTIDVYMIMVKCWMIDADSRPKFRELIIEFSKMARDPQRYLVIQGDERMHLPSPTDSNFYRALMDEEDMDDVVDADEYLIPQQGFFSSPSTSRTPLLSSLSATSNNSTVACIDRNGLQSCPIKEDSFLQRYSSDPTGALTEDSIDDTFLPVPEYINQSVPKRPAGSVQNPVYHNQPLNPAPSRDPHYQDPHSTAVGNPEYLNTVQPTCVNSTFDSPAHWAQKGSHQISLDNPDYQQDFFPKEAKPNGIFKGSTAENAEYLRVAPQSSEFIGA
Sequence of Estrogen receptor beta (Q92731 whole entry): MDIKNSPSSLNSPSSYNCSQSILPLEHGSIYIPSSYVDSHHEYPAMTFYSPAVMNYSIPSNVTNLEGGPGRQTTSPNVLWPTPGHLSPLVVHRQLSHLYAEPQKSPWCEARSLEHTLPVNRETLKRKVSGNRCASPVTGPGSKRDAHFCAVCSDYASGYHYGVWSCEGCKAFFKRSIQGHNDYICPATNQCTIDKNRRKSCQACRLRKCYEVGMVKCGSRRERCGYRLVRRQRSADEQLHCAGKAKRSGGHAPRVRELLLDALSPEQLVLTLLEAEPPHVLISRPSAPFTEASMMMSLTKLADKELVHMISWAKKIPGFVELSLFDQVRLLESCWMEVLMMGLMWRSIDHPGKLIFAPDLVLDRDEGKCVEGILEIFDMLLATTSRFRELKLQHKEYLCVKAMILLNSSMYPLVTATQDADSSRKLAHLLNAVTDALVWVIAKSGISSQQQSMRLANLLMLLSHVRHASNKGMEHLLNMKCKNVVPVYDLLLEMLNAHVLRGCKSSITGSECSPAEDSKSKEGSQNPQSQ
Sequence of Histamine H1 receptor (P35367 whole entry): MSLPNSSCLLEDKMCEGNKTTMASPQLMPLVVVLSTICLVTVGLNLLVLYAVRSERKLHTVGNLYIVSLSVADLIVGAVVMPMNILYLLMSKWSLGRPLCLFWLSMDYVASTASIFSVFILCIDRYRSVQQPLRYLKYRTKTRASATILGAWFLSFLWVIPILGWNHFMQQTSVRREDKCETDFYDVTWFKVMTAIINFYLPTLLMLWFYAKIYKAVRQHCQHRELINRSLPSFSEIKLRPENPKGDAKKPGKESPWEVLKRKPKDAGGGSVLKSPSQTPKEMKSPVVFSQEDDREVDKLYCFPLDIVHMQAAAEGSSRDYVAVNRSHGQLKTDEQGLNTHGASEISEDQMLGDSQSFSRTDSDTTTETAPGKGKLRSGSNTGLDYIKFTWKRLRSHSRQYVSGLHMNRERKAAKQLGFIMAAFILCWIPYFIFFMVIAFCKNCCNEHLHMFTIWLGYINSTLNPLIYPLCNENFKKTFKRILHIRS
Sequence of Cannabinoid receptor 1 (P21554 whole entry): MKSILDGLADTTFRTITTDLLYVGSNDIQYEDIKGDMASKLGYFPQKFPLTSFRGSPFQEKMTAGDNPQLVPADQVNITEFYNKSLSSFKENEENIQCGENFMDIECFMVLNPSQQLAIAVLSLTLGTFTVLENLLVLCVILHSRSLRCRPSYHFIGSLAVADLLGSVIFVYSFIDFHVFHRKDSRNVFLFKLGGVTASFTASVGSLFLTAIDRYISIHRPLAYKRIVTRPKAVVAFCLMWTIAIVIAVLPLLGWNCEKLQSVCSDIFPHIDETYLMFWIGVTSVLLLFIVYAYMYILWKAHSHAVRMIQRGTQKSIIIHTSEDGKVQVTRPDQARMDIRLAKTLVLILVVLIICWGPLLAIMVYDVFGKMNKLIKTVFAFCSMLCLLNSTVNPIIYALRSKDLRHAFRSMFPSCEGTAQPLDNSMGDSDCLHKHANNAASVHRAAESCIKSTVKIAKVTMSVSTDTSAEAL
Sequence of Sodium channel protein type 5 subunit alpha (Q14524 whole entry): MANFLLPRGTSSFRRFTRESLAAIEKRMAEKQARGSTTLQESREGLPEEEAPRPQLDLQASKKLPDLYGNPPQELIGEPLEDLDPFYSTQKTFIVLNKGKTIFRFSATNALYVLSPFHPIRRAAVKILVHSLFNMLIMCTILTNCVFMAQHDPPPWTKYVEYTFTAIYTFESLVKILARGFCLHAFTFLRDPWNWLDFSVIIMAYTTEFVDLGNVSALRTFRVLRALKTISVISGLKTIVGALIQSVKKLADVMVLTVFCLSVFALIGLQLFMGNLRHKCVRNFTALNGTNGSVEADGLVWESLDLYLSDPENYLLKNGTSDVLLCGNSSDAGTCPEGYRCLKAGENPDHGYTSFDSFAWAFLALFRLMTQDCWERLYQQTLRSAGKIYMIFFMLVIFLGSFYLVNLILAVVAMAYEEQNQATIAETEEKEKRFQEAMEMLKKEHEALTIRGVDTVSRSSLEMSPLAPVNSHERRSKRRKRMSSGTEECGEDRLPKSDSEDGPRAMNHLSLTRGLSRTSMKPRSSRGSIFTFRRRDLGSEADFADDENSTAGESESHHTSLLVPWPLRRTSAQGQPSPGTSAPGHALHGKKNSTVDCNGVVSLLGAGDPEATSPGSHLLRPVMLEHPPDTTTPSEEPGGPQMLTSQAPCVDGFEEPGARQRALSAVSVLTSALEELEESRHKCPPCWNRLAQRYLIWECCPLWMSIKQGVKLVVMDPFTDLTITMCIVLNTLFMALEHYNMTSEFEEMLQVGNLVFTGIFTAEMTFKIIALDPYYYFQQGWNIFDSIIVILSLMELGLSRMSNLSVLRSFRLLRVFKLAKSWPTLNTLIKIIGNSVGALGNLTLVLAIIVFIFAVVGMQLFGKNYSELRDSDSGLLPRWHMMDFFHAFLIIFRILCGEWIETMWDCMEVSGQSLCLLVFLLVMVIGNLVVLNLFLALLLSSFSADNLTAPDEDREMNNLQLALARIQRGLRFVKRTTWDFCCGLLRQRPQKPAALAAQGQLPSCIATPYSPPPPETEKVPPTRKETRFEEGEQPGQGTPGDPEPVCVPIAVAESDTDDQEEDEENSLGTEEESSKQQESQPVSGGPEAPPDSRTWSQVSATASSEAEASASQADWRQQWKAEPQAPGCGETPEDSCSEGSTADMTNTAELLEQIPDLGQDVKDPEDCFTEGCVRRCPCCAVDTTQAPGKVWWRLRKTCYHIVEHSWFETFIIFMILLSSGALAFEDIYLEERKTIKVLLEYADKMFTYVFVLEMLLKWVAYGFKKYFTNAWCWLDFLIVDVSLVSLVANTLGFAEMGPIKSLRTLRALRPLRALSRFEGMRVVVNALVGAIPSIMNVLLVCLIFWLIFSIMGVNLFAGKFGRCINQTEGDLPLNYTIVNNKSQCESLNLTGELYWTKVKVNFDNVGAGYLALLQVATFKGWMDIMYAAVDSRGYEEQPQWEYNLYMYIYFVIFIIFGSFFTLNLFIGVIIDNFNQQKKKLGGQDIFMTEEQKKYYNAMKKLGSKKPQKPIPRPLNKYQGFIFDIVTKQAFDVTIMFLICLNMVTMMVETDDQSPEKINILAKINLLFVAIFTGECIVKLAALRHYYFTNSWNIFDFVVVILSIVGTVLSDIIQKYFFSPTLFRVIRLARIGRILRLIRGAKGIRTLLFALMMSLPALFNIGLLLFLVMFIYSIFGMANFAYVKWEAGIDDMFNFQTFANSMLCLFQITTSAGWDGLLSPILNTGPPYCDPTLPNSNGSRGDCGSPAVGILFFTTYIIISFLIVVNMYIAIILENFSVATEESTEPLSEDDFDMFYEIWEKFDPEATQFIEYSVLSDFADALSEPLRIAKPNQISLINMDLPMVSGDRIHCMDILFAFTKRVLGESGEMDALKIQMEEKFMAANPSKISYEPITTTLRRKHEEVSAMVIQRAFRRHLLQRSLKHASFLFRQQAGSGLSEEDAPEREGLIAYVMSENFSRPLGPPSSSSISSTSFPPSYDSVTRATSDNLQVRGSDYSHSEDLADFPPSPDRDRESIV
Sequence of 5-hydroxytryptamine receptor 5A (P47898 whole entry): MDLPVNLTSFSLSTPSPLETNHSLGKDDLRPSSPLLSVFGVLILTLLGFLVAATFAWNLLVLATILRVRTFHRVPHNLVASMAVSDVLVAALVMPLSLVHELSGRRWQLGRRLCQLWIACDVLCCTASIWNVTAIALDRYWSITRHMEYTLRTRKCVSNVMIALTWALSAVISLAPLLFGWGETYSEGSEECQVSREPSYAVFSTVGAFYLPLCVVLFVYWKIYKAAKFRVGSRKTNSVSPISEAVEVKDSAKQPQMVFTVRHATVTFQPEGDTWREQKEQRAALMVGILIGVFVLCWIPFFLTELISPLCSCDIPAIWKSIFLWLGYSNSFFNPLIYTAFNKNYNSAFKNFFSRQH

COc1ccccc1Oc1c(NS(=O)(=O)c2ccc(C(C)(C)C)cc2)nc(-c2ncccn2)nc1OCCO [BOSENTAN]
AC50 (Estrogen receptor beta): > 30 µM
AC50 (Histamine H1 receptor): > 30 µM
AC50 (Glucocorticoid receptor): > 30 µM
AC50 [1]: > 10 µM

FC(F)(F)c1ccc(CNc2ccc(Cc3c[nH]c4ncc(Cl)cc34)cn2)cn1 [PEXIDARTINIB]
AC50 [2]: 0.3 µM

O=C1CCc2cc(OCCCCc3nnnn3C3CCCCC3)ccc2N1 [CILOSTAZOL]
AC50 [3]: > 50 µM
AC50 [4]: > 50 µM

CN1C[C@H](C(=O)N[C@]2(C)O[C@@]3(O)[C@@H]4CCCN4C(=O)[C@H](Cc4ccccc4)N3C2=O)C=C2c3cccc4[nH]cc(c34)C[C@H]21 [ERGOTAMINE]
AC50 (Estrogen receptor): > 30 µM
AC50 (Glucocorticoid receptor): > 30 µM

CN(CC1(C)CCCO1)S(=O)(=O)c1ccc(Cl)c(S(N)(=O)=O)c1 (stereo not given) [MEFRUSIDE]
AC50 [2]: > 30 µM

C[C@@H](NCCCc1cccc(C(F)(F)F)c1)c1cccc2ccccc12
AC50 (Histamine H1 receptor): > 30 µM

C#C[C@]1(O)CC[C@H]2[C@@H]3CCC4=CC(=O)CC[C@@H]4[C@H]3C(=C)C[C@@]21CC [ETONOGESTREL]
AC50 [2]: > 30 µM

CCN1CCN(Cc2ccc(Nc3ncc(F)c(-c4cc(F)c5nc(C)n(C(C)C)c5c4)n3)nc2)CC1 [ABEMACICLIB]
AC50 (Estrogen receptor): > 30 µM
AC50 [5]: 9.5 µM
AC50 (Glucocorticoid receptor): > 30 µM
AC50 [3]: > 50 µM

Cc1onc(-c2ccccc2)c1-c1ccc(S(N)(=O)=O)cc1 [VALDECOXIB]
AC50 (Cannabinoid receptor 1): > 10 µM
AC50 (Estrogen receptor beta): > 30 µM
AC50 [6]: > 10 µM
AC50 [7]: > 10 µM
AC50 [1]: > 10 µM

CCN(CC)CCNC(=O)c1c(C)[nH]c(/C=C2\C(=O)Nc3ccc(F)cc32)c1C [SUNITINIB]
AC50 [6]: 10 µM
AC50 [7]: > 10 µM
AC50 [4]: > 50 µM

CO[C@H]1/C=C/O[C@@]2(C)Oc3c(C)c(O)c4c(O)c(c(/C=N/N5CCN(C)CC5)c(O)c4c3C2=O)NC(=O)/C(C)=C\C=C\[C@H](C)[C@H](O)[C@@H](C)[C@@H](O)[C@@H](C)[C@H](OC(C)=O)[C@@H]1C [RIFAMPIN]
AC50 (Cannabinoid receptor 1): > 10 µM
AC50 (Estrogen receptor beta): > 30 µM

CCCN(CCC)C(=O)Cc1c(-c2ccc(Cl)cc2)nc2ccc(Cl)cn12 [ALPIDEM]
AC50 (Cannabinoid receptor 1): > 10 µM
AC50 [7]: > 10 µM
AC50 [1]: > 10 µM

COc1cc2nccc(Oc3ccc(NC(=O)C4(C(=O)Nc5ccc(F)cc5)CC4)cc3)c2cc1OC [CABOZANTINIB]
AC50 (Estrogen receptor): > 10 µM
AC50 (Glucocorticoid receptor): > 30 µM
AC50 [3]: > 3 µM

CCCC(CCC)C(=O)O [VALPROIC ACID]
AC50 (Cannabinoid receptor 1): > 10 µM
AC50 [7]: > 10 µM
AC50 [1]: > 10 µM

C[C@H](CCC(=O)O)[C@H]1CC[C@H]2[C@@H]3[C@@H](O)C[C@@H]4C[C@H](O)CC[C@]4(C)[C@H]3CC[C@]12C [URSODIOL]
AC50 (Estrogen receptor): > 30 µM
AC50 [5]: > 30 µM

CC[C@@]1(O)C(=O)OCc2c1cc1n(c2=O)Cc2cc3c([N+](=O)[O-])cccc3nc2-1 [RUBITECAN]
AC50 [2]: > 30 µM

COc1cc2nc(N3CCN(C(=O)C4CCCO4)CC3)nc(N)c2cc1OC (stereo not given) [TERAZOSIN]
AC50 (Estrogen receptor beta): > 30 µM

CC(C)(O)CNc1nc(Nc2ccnc(C(F)(F)F)c2)nc(-c2cccc(C(F)(F)F)n2)n1 [ENASIDENIB]
AC50 [2]: > 30 µM

CC(C(=O)O)c1ccc2c(c1)[nH]c1ccc(Cl)cc12 (stereo not given) [CARPROFEN]
AC50 (Glucocorticoid receptor): > 30 µM

O=C1CN(/N=C/c2ccc(-c3ccc([N+](=O)[O-])cc3)o2)C(O)=N1 [DANTROLENE]
AC50 [3]: > 50 µM

CN(C)CCc1c[nH]c2ccc(Cn3cncn3)cc12 [RIZATRIPTAN]
AC50 (Cannabinoid receptor 1): > 10 µM
AC50 (Estrogen receptor beta): > 30 µM
AC50 (Histamine H1 receptor): > 30 µM
AC50 [3]: > 30 µM
AC50 [1]: > 10 µM

COc1ccccc1OCCNCC(O)COc1cccc2[nH]c3ccccc3c12 (stereo not given) [CARVEDILOL]
AC50 (Cannabinoid receptor 1): > 10 µM
AC50 (Estrogen receptor beta): > 30 µM
AC50 [1]: > 10 µM

C[C@@H](Oc1cc(-c2cnn(C3CCNCC3)c2)cnc1N)c1c(Cl)ccc(F)c1Cl [CRIZOTINIB]
AC50 (Estrogen receptor): > 30 µM
AC50 (Glucocorticoid receptor): > 30 µM
AC50 [4]: > 30 µM

OC[C@H]1O[C@@H](c2ccc(Cl)c(Cc3ccc(O[C@H]4CCOC4)cc3)c2)[C@H](O)[C@@H](O)[C@@H]1O [EMPAGLIFLOZIN]
AC50 [3]: > 50 µM

CC(C)Cc1ccc(C(C)C(=O)O)cc1 (stereo not given) [IBUPROFEN]
AC50 (Cannabinoid receptor 1): > 10 µM
AC50 (Estrogen receptor beta): > 30 µM
AC50 (Glucocorticoid receptor): > 30 µM
AC50 [1]: > 10 µM

OC[C@H]1O[C@@](CO)(O[C@H]2O[C@H](CO)[C@@H](O)[C@H](O)[C@H]2O)[C@@H](O)[C@@H]1O [SUCROSE]
AC50 (Histamine H1 receptor): > 30 µM
AC50 [2]: > 30 µM

CC(C)c1nc(N(C)S(C)(=O)=O)nc(-c2ccc(F)cc2)c1/C=C/[C@@H](O)C[C@@H](O)CC(=O)O [ROSUVASTATIN]
AC50 (Estrogen receptor): > 30 µM
AC50 (Histamine H1 receptor): > 30 µM
AC50 (Glucocorticoid receptor): > 30 µM

C=C[C@H]1C[N@@]2CC[C@H]1C[C@@H]2[C@@H](O)c1ccnc2ccc(OC)cc12 [QUINIDINE]
AC50 (Histamine H1 receptor): > 30 µM

CC(C)N(CCC(C(N)=O)(c1ccccc1)c1ccccn1)C(C)C (stereo not given) [DISOPYRAMIDE]
AC50 (Estrogen receptor beta): > 30 µM
AC50 (Histamine H1 receptor): > 30 µM
AC50 [3]: > 50 µM
AC50 [4]: > 50 µM

N[C@@H](CC(=O)N1CCn2c(nnc2C(F)(F)F)C1)Cc1cc(F)c(F)cc1F [SITAGLIPTIN]
AC50 (Cannabinoid receptor 1): > 10 µM
AC50 (Estrogen receptor): > 30 µM
AC50 [6]: > 10 µM
AC50 (Glucocorticoid receptor): > 30 µM
AC50 [7]: > 10 µM
AC50 [3]: > 150 µM
AC50 [1]: > 10 µM
AC50 [4]: > 50 µM

CCOC(=O)c1c(C)cc2c(CO)n[nH]c(=O)c2c1C [OXAGRELATE]
AC50 [2]: > 30 µM

C=CC[C@@H]1/C=C(\C)C[C@H](C)C[C@H](OC)[C@H]2O[C@@](O)(C(=O)C(=O)N3CCCC[C@H]3C(=O)O[C@H](/C(C)=C/[C@@H]3CC[C@@H](O)[C@H](OC)C3)[C@H](C)[C@@H](O)CC1=O)[C@H](C)C[C@@H]2OC [TACROLIMUS ANHYDROUS]
AC50 (Cannabinoid receptor 1): > 10 µM
AC50 (Estrogen receptor): > 30 µM
AC50 (Estrogen receptor beta): > 30 µM
AC50 [5]: > 30 µM
AC50 (Glucocorticoid receptor): > 30 µM
AC50 [3]: 45 µM and > 30 µM
AC50 [1]: > 10 µM
AC50 [4]: > 50 µM
